{
  "source": "patent US11572590B2",
  "about": "“Methods for evaluating tumor cell spheroids using 3D microfluidic cell culture device” (Dana-Farber Cancer Institute, Inc., priority 2017, dated 2023)",
  "key": {"off-target kinases [1]": {"biological_target": "off-target kinases (Homo sapiens, UniProt Q02750)", "sequence (Q02750 whole entry)": "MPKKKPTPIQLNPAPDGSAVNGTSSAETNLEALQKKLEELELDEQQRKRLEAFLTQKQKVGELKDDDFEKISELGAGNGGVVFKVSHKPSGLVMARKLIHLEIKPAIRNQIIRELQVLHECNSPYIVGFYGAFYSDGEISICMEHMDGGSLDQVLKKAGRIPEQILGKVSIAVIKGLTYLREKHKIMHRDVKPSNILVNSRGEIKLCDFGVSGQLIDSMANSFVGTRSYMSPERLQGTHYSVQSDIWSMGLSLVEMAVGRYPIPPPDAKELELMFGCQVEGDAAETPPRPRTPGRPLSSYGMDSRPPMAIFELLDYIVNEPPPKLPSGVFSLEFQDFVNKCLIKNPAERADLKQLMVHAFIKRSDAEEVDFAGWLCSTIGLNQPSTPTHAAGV", "assay": "SelectScreen Kinase Profiling, single point inhibition and IC50 for off-target kinases", "type": "biochemical", "details": "MAP2K1 (MEK1)"}, "off-target kinases [2]": {"biological_target": "off-target kinases (Homo sapiens, UniProt Q8TDX7)", "sequence (Q8TDX7 whole entry)": "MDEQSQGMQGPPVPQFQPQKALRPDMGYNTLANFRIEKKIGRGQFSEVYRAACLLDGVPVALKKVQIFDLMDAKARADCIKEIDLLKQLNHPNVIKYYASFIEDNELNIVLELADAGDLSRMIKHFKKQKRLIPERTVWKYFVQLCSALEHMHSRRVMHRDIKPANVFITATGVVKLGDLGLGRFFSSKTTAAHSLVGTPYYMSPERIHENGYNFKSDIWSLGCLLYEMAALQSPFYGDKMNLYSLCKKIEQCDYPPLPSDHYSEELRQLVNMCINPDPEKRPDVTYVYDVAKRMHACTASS", "assay": "SelectScreen Kinase Profiling, single point inhibition and IC50 for off-target kinases", "type": "biochemical", "details": "NEK7, ZLYTE, ATP Km app"}, "off-target kinases [3]": {"biological_target": "T1, off-target kinases (Homo sapiens, UniProt Q8WTQ7)", "T1 sequence (Q8WTQ7 1-553)": "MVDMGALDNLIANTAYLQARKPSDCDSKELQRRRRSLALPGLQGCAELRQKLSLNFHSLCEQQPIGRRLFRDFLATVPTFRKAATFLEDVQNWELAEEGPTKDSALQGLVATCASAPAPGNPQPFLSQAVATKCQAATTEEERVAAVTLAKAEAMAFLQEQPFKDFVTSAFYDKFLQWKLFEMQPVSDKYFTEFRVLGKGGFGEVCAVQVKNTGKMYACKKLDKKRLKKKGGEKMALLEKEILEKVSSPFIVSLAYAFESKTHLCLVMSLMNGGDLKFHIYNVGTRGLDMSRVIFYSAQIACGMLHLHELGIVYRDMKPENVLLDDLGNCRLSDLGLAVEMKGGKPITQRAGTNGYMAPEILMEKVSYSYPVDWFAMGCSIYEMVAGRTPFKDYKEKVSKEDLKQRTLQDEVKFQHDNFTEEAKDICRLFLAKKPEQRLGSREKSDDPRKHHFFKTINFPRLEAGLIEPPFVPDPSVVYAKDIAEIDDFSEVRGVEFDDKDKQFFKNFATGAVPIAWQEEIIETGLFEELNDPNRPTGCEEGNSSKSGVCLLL", "assay": "SelectScreen Kinase Profiling, single point inhibition and IC50 for off-target kinases", "type": "biochemical", "details": "GRK7, ZLYTE, ATP Km app"}, "off-target kinases [4]": {"biological_target": "off-target kinases (Homo sapiens, UniProt P10721, T670I)", "sequence (P10721 26-976 T670I)": "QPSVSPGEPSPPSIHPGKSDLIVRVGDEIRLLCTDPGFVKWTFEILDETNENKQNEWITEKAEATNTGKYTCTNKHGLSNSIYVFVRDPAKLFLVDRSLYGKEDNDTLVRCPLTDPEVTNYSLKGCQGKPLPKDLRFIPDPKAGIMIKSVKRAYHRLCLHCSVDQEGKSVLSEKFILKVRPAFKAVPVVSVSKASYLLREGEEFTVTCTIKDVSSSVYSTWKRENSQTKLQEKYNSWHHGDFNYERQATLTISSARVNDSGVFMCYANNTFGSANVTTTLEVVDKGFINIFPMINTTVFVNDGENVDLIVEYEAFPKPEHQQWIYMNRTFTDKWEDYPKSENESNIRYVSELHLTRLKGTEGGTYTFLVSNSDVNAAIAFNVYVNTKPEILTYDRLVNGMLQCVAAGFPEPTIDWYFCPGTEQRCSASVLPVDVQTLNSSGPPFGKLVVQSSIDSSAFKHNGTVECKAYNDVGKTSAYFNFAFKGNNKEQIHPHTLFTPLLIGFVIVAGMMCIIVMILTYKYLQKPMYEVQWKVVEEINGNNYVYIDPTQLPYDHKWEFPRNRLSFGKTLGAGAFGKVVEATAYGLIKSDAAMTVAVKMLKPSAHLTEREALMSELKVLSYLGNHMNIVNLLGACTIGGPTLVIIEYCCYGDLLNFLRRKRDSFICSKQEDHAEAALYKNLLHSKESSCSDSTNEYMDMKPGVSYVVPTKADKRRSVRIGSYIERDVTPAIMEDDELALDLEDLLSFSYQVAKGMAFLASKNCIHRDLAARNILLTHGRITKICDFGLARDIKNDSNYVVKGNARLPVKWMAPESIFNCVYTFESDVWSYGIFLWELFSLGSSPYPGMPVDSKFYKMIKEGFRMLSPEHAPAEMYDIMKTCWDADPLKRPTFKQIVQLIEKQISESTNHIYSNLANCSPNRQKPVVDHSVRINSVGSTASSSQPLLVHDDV", "assay": "SelectScreen Kinase Profiling, single point inhibition and IC50 for off-target kinases", "type": "biochemical", "details": "KIT T670I (mutant), ZLYTE, ATP Km app"}, "off-target kinases [5]": {"biological_target": "off-target kinases (Homo sapiens, UniProt Q13131)", "sequence (Q13131 whole entry)": "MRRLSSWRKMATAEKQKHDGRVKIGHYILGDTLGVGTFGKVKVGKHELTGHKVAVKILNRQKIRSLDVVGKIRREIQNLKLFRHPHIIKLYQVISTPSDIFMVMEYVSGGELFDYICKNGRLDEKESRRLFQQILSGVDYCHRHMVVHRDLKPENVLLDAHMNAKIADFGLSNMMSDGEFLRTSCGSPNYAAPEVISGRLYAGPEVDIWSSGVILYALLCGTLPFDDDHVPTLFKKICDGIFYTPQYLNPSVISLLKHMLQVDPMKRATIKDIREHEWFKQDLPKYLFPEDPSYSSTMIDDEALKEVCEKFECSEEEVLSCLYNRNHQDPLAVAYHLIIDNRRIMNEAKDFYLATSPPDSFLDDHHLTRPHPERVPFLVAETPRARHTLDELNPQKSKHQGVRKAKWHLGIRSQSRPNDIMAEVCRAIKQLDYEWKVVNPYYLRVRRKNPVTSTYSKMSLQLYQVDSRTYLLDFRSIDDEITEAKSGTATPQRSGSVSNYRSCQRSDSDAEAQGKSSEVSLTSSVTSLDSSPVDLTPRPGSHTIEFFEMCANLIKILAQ", "assay": "SelectScreen Kinase Profiling, single point inhibition and IC50 for off-target kinases", "type": "biochemical"}, "off-target kinases [6]": {"biological_target": "off-target kinases (Homo sapiens, UniProt P10721, T670E)", "sequence (P10721 26-976 T670E)": "as the sequence (P10721 26-976 T670I) above, with I645E counted along it", "assay": "SelectScreen Kinase Profiling, single point inhibition and IC50 for off-target kinases", "type": "biochemical", "details": "KIT T670E (mutant), LanthaScreen Binding"}, "off-target kinases [7]": {"biological_target": "off-target kinases (Homo sapiens, UniProt O75582)", "sequence (O75582 whole entry)": "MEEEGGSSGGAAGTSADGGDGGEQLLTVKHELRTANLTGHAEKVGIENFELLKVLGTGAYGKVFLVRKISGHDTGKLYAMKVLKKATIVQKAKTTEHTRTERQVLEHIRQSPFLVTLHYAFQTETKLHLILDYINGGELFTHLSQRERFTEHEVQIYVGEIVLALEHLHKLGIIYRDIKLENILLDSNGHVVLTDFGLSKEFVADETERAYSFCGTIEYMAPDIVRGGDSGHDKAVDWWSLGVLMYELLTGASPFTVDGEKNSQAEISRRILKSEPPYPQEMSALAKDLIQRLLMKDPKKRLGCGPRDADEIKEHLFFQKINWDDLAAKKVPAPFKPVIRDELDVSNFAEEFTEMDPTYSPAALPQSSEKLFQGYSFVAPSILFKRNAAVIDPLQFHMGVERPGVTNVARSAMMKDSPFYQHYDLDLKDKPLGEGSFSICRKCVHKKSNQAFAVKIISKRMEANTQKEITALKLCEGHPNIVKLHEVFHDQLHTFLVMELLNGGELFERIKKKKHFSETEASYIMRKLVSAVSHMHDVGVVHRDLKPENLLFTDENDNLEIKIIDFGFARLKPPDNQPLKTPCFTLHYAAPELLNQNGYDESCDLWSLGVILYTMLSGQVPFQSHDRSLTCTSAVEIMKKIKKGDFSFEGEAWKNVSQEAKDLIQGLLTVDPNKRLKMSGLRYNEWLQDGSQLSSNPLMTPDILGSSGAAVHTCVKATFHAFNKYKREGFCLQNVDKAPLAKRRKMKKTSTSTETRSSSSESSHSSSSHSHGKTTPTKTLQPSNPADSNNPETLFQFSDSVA", "assay": "SelectScreen Kinase Profiling, single point inhibition and IC50 for off-target kinases", "type": "biochemical", "details": "RPS6KA5 (MSK1), ZLYTE, ATP Km app"}, "MC38 allograft": {"test_system": "MC38 allograft", "assay": "MC38 allograft, Compound 1 and anti-PD-L1 combination in vivo", "design": "species or system mouse", "details": "Cmpd1 + αPD-L1; did not reach significance vs single-agent PD-L1"}},
  "note": "Read-outs that look alike come from different tables or passages of the source.",
  "data": [
    {"smiles": "N#Cc1cc(-c2ncnc(Nc3ccc(N4CCN(C5COC5)CC4)cc3)n2)ccc1OC1CCOCC1", "note": "[Compound 1, 5-(4-((4-(4-(oxetan-3-yl)piperazin-1-yl)phenyl)amino)-1,3,5-triazin-2-yl)-2-((tetrahydro-2H-pyran-4-yl)oxy)benzonitrile]", "values": [
      {"measurement": "inhibition", "setting": "off-target kinases [1]; LanthaScreen Binding, read-out: % Inhibition 1", "value": 6, "unit": "%"},
      {"measurement": "inhibition", "setting": "off-target kinases [1]; LanthaScreen Binding, read-out: % Inhibition 2", "value": 5, "unit": "%"},
      {"measurement": "inhibition", "setting": "off-target kinases [1]; LanthaScreen Binding, read-out: % Inhibition Avg", "value": 5, "unit": "%"},
      {"measurement": "inhibition", "setting": "off-target kinases [1]; ZLYTE, ATP 100, read-out: % Inhibition 1", "value": 7, "unit": "%"},
      {"measurement": "inhibition", "setting": "off-target kinases [1]; ZLYTE, ATP 100, read-out: % Inhibition 2", "value": 3, "unit": "%"},
      {"measurement": "inhibition", "setting": "off-target kinases [1]; ZLYTE, ATP 100, read-out: % Inhibition Avg", "value": 5, "unit": "%"},
      {"measurement": "inhibition", "setting": "off-target kinases [2]; read-out: % Inhibition 1", "value": 5, "unit": "%"},
      {"measurement": "inhibition", "setting": "off-target kinases [2]; read-out: % Inhibition 2", "value": 2, "unit": "%"},
      {"measurement": "inhibition", "setting": "off-target kinases [2]; read-out: % Inhibition Avg", "value": 3, "unit": "%"},
      {"measurement": "inhibition", "setting": "off-target kinases [3]; read-out: % Inhibition 1", "value": 3, "unit": "%"},
      {"measurement": "inhibition", "setting": "off-target kinases [3]; read-out: % Inhibition 2", "value": 5, "unit": "%"},
      {"measurement": "inhibition", "setting": "off-target kinases [3]; read-out: % Inhibition Avg", "value": 4, "unit": "%"},
      {"measurement": "inhibition", "setting": "off-target kinases [4]; read-out: % Inhibition 1", "value": 6, "unit": "%"},
      {"measurement": "inhibition", "setting": "off-target kinases [4]; read-out: % Inhibition 2", "value": 7, "unit": "%"},
      {"measurement": "inhibition", "setting": "off-target kinases [4]; read-out: % Inhibition Avg", "value": 6, "unit": "%"},
      {"measurement": "inhibition", "setting": "off-target kinases [5]; AMPK (A1/B1/G2), LanthaScreen Binding, read-out: % Inhibition 1", "value": 40, "unit": "%"},
      {"measurement": "inhibition", "setting": "off-target kinases [5]; AMPK (A1/B1/G2), LanthaScreen Binding, read-out: % Inhibition 2", "value": 40, "unit": "%"},
      {"measurement": "inhibition", "setting": "off-target kinases [5]; AMPK (A1/B1/G2), LanthaScreen Binding, read-out: % Inhibition Avg", "value": 40, "unit": "%"},
      {"measurement": "inhibition", "setting": "off-target kinases [5]; AMPK (A1/B1/G3), LanthaScreen Binding, read-out: % Inhibition 1", "value": 37, "unit": "%"},
      {"measurement": "inhibition", "setting": "off-target kinases [5]; AMPK (A1/B1/G3), LanthaScreen Binding, read-out: % Inhibition 2", "value": 42, "unit": "%"},
      {"measurement": "inhibition", "setting": "off-target kinases [5]; AMPK (A1/B1/G3), LanthaScreen Binding, read-out: % Inhibition Avg", "value": 39, "unit": "%"},
      {"measurement": "inhibition", "setting": "off-target kinases [5]; AMPK (A1/B2/G1), LanthaScreen Binding, read-out: % Inhibition 1", "value": 49, "unit": "%"},
      {"measurement": "inhibition", "setting": "off-target kinases [5]; AMPK (A1/B2/G1), LanthaScreen Binding, read-out: % Inhibition 2", "value": 43, "unit": "%"},
      {"measurement": "inhibition", "setting": "off-target kinases [5]; AMPK (A1/B2/G1), LanthaScreen Binding, read-out: % Inhibition Avg", "value": 46, "unit": "%"},
      {"measurement": "inhibition", "setting": "off-target kinases [5]; AMPK A1/B1/G1, ATP Km app, ZLYTE, read-out: % Inhibition 1", "value": 58, "unit": "%"},
      {"measurement": "inhibition", "setting": "off-target kinases [5]; AMPK A1/B1/G1, ATP Km app, ZLYTE, read-out: % Inhibition 2", "value": 53, "unit": "%"},
      {"measurement": "inhibition", "setting": "off-target kinases [5]; AMPK A1/B1/G1, ATP Km app, ZLYTE, read-out: % Inhibition Avg", "value": 55, "unit": "%"},
      {"measurement": "inhibition", "setting": "off-target kinases [6]; read-out: % Inhibition 1", "value": 2, "unit": "%"},
      {"measurement": "inhibition", "setting": "off-target kinases [6]; read-out: % Inhibition 2", "value": 2, "unit": "%"},
      {"measurement": "inhibition", "setting": "off-target kinases [6]; read-out: % Inhibition Avg", "value": 2, "unit": "%"},
      {"measurement": "inhibition", "setting": "off-target kinases [7]; read-out: % Inhibition 1", "value": 6, "unit": "%"},
      {"measurement": "inhibition", "setting": "off-target kinases [7]; read-out: % Inhibition 2", "value": 3, "unit": "%"},
      {"measurement": "inhibition", "setting": "off-target kinases [7]; read-out: % Inhibition Avg", "value": 4, "unit": "%"},
      {"measurement": "in vivo survival, MC38 model, combination treatment", "setting": "MC38 allograft", "value": "enhanced"}
    ]}
  ]
}
